According to US20240173369A1 (priority 2021, published 2024):
Values after ≈ are worked out from the molar mass of the structure shown. Values belong to the compound of their own block, whether it stands above or below them.

Tests used:
P. aeruginosa = experiment: Minimal inhibitory concentration; type: cell-based; conditions: Pseudomonas aeruginosa
[1] = tested on: P. aeruginosa embedded in pre-formed biofilm; experiment: Viability of P. aeruginosa embedded in pre-formed biofilm (BacTiter-Glo); type: cell-based, Pseudomonas aeruginosa; conditions: 24 h biofilm, 6 hours treatment; RLU converted to cCFU
Method: To test the effect of phage on biofilm, starters of the relevant bacteria were grown overnight. Three isolated single colonies of the relevant strains were picked into 3 mL TSB and shook overnight at 37° C., 180 rpm, to an OD600>1, one starter used for each of two biological repeats. The next day, the starters were dispersed in 96 wells plate and the biofilm was left to form for 24 hours: cultures were diluted 1:100 in 3 mL fresh TSB (Tryptic Soy Broth) medium and OD600 was adjusted to ˜0.05 (˜4×10^7 CFU/mL). 200 μL of the diluted inoculums were added per well in a 96 well culture plate (Biofil, cat #TCP-011-096) according to the plate layout. 200 μL TSB was used for blank wells. […] After the incubation period, the supernatant was carefully removed (media, waste, phages/antibiotics, and planktonic cells) the biofilm was washed again with 200 μL PBS (Phosphate-buffered saline, Hylabs, cat #BP655) and its biomass measured (staining with crystal violet (CV) and/or viable cells (plating for CFU enumeration).
For host cells viability assessment, the BacTiter-Glo (Promega, cat #G8231) method was used. The method measures viable bacterial cells based on quantification of the ATP present in the viable cells. The readout is a luminescent signal (in relative light units (RLU)) in an ATP-dependent reaction. […]

[2] = tested on: Pseudomonas aeruginosa strains 883, 762, PAO1; experiment: Synergism with antibiotic in liquid infection (OD600 growth curves); type: cell-based
Method: To test the efficacy of the phage and antibiotics in liquid culture, bacterial host cells were grown overnight in TSB at 37° C. with shaking at 180 rpm to OD600>1.5. In addition, each phage was diluted to a concentration of 5×10^7 PFU/ml in TSB and used individually or combined equally with other phages into a cocktail. Then, 1 mM ions were added, and 200 μL was dispensed per well in a 96-well plate to a final concentration of […]. For no phage control (NPC), TSB containing 1 mM ions was used. Antibiotics was added to the relevant wells (aztreonam 4 μg/mL, colistin 2 μg/mL for “883,” 4 μg/mL for “762” and 6 μg/mL for PAO1). Then, 2 μL of the bacterial culture was added to the wells (dilution of 1:100). TSB containing 1 mM ions was used as NPC. Two repeats were done for each treatment, and TSB media served as a blank. 50 μL of mineral oil added were added to each well to reduce evaporation of the samples, and the plate was covered with a sterile film to allow for bacterial growth and keep the culture sterile. Plates were incubated for approximately 30 hours in a plate reader at 37° C. with shaking, and OD600 was measured every 20 minutes. Two biological repeats were performed for the assay.

MIC (P. aeruginosa): 4 µg/mL (≈ 13.4 µM)
Compound: C[C@@H](O)[C@H]1C(=O)N2C(C(=O)O)=C(SCCN=CN)C[C@H]12 [antibiotic, imipenem]
reduction of bacterial burden of embedded PsA [1]: ~1 logs

Compound: NC[C@H]1O[C@H](O[C@H]2[C@H](O)[C@@H](O[C@H]3O[C@H](CO)[C@@H](O)[C@H](N)[C@H]3O)[C@H](N)C[C@@H]2N)[C@H](N)C[C@@H]1O [Tobramycin, tobramycin]
time growth was suppressed ([2]; PsA strains, single treatment alone): approximately 25 hours

Compound: C[C@H]1[C@H](NC(=O)/C(=N\OC(C)(C)C(=O)O)c2csc(N)n2)C(=O)N1S(=O)(=O)O [aztreonam]
effect on bacterial growth / appearance of bacteria mutants ([2]; PsA strains (e.g., PAO1, 883)): slower bacterial growth throughout the observed period
